Tests used:
Assay in all cases: KinaseProfiler off-target kinase profiling
Assay type in all cases: biochemical
[1] = target: T1, Fes (Homo sapiens, UniProt P07332); conditions: 10 μM, ATP near Km
T1 construct: purchased Millipore, Inc. (KinaseProfiler service)
Method in brief: (§1)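 ATP concentrations approximate the Km of each kinase, and the compound is present at 10 μM. Assays are done in duplicate, with the mean residual activity given as percent of control.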

[2] = target: T2, MELK (Homo sapiens, UniProt Q14680); conditions: 10 μM, ATP near Km
T2 construct: purchased Millipore, Inc. (KinaseProfiler service)
Method in brief: as §1

[3] = target: T3, CAMK1 (Homo sapiens, UniProt Q14012); conditions: 10 μM, ATP near Km
T3 construct: purchased Millipore, Inc. (KinaseProfiler service)
Method in brief: as §1

[4] = target: T4, PRKG1beta (Homo sapiens, UniProt Q13976); conditions: 10 μM, ATP near Km
T4 construct: purchased Millipore (KinaseProfiler service)
Method in brief: as §1

[5] = target: T5, CK1gamma1 (Homo sapiens, UniProt Q9HCP0); conditions: 10 μM, ATP near Km
T5 construct: purchased Millipore, Inc. (KinaseProfiler service)
Method in brief: as §1

[6] = target: T6, Abl2 (Homo sapiens, UniProt P42684); conditions: 10 μM, ATP near Km
T6 construct: purchased Millipore, Inc. (KinaseProfiler service)
Method in brief: as §1

[7] = target: T7, PrKX (Homo sapiens, UniProt P51817); conditions: 10 μM, ATP near Km
T7 construct: purchased Millipore (KinaseProfiler service)
T7 sequence (P51817 whole entry): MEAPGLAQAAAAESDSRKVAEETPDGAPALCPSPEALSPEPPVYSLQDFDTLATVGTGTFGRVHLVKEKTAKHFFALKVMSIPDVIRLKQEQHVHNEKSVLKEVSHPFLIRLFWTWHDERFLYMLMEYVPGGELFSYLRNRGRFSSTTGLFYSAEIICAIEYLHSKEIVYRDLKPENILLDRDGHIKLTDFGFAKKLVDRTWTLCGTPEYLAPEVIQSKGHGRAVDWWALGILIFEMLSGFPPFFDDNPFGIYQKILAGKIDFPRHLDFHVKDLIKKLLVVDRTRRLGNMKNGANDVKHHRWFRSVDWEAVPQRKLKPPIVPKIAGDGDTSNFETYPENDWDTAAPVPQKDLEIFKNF
Method in brief: as §1

[8] = target: T8, CAMK2d (Homo sapiens, UniProt Q13557); conditions: 10 μM, ATP near Km
T8 construct: purchased Millipore, Inc. (KinaseProfiler service)
Method in brief: as §1

[9] = target: T9, SIK (Homo sapiens, UniProt P57059); conditions: 10 μM, ATP near Km
T9 construct: purchased Millipore, Inc. (KinaseProfiler service)
Method in brief: as §1

[10] = target: T10, ALK (Homo sapiens, UniProt Q9UM73); conditions: 10 μM, ATP near Km
T10 construct: purchased Millipore, Inc. (KinaseProfiler service)
Method in brief: as §1

[11] = target: T11, DCAMKL2 (Homo sapiens, UniProt Q8N568); conditions: 10 μM, ATP near Km
T11 construct: purchased Millipore, Inc. (KinaseProfiler service)
Method in brief: as §1

[12] = target: T12, AMPK(A1/B1/G1) (Homo sapiens, UniProt Q13131); conditions: 10 μM, ATP near Km
T12 construct: purchased Millipore, Inc. (KinaseProfiler service)
T12 sequence (Q13131 whole entry): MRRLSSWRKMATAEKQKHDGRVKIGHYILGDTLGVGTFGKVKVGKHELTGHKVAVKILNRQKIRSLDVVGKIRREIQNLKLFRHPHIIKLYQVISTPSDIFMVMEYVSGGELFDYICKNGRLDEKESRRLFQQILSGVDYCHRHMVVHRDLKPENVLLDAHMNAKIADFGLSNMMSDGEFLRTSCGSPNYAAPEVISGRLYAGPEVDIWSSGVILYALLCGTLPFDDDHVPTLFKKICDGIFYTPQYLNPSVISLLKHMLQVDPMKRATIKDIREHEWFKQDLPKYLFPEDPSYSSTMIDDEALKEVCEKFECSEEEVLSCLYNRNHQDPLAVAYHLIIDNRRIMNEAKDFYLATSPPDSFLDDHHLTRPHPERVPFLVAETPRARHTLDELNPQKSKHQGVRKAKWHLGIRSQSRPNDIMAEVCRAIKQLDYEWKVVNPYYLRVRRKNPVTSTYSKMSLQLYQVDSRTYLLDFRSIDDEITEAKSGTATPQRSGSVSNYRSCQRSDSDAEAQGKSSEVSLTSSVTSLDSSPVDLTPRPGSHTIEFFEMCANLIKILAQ
T12 sequence (Q9Y478 whole entry partner): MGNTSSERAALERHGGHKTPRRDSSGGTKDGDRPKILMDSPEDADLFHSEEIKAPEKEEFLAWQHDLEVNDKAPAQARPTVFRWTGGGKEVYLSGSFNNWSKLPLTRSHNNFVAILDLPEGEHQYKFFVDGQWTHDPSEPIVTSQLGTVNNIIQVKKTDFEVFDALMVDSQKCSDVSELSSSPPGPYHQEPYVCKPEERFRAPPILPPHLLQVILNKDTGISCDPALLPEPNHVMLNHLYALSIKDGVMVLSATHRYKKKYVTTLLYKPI
T12 sequence (P54619 whole entry partner): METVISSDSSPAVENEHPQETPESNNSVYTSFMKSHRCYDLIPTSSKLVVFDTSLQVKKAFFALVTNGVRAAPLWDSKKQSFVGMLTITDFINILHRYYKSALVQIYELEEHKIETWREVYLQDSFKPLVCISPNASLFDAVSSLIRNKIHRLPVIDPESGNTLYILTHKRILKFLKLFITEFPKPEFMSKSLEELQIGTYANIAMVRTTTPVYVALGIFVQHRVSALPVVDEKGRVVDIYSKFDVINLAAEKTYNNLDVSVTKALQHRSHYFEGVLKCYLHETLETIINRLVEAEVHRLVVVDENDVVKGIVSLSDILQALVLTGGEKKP
Method in brief: as §1

[13] = target: T13, ROCK-II (Homo sapiens, UniProt O75116); conditions: 10 μM, ATP near Km
T13 construct: purchased Millipore (KinaseProfiler service)
Method in brief: as §1

[14] = target: T14, EphA2 (Homo sapiens, UniProt P29317); conditions: 10 μM, ATP near Km
T14 construct: purchased Millipore, Inc. (KinaseProfiler service)
Method in brief: as §1

[15] = target: T15, GRK5 (Homo sapiens, UniProt P34947); conditions: 10 μM, ATP near Km
T15 construct: purchased Millipore, Inc. (KinaseProfiler service)
Method in brief: as §1

[16] = target: T16, IKKalpha (Homo sapiens, UniProt O15111); conditions: 10 μM, ATP near Km
T16 construct: purchased Millipore, Inc. (KinaseProfiler service)
Method in brief: as §1

[17] = target: T17, CAMK4 (Homo sapiens, UniProt Q16566); conditions: 10 μM, ATP near Km
T17 construct: purchased Millipore, Inc. (KinaseProfiler service)
Method in brief: as §1

[18] = target: T18, TrkB (Homo sapiens, UniProt Q16620); conditions: 10 μM, ATP near Km
T18 construct: purchased Millipore, Inc. (KinaseProfiler service)
Method in brief: as §1

[19] = target: T19, PKCalpha (Homo sapiens, UniProt P17252); conditions: 10 μM, ATP near Km
T19 construct: purchased Millipore, Inc. (KinaseProfiler service)
Method in brief: as §1

[20] = target: T20, Axl (Homo sapiens, UniProt P30530); conditions: 10 μM, ATP near Km
T20 construct: purchased Millipore, Inc. (KinaseProfiler service)
Method in brief: as §1

[21] = target: T21, Plk3 (Homo sapiens, UniProt Q9H4B4); conditions: 10 μM, ATP near Km
T21 construct: purchased Millipore (KinaseProfiler service)
Method in brief: as §1

[22] = target: T22, MST1 (Homo sapiens, UniProt Q13043); conditions: 10 μM, ATP near Km
T22 construct: purchased Millipore, Inc. (KinaseProfiler service)
Method in brief: as §1

[23] = target: T23, Met (Homo sapiens, UniProt P08581); conditions: 10 μM, ATP near Km
T23 construct: purchased Millipore, Inc. (KinaseProfiler service)
Method in brief: as §1

[24] = target: T24, KIT (Homo sapiens, UniProt P10721); conditions: 10 μM, ATP near Km
T24 construct: purchased Millipore, Inc. (KinaseProfiler service)
Method in brief: as §1

[25] = target: T25, EphB1 (Homo sapiens, UniProt P54762); conditions: 10 μM, ATP near Km
T25 construct: purchased Millipore, Inc. (KinaseProfiler service)
Method in brief: as §1

[26] = target: T26, IR (Homo sapiens, UniProt P06213); conditions: 10 μM, ATP near Km
T26 construct: purchased Millipore, Inc. (KinaseProfiler service)
Method in brief: as §1

[27] = target: T27, Mer (Homo sapiens, UniProt Q12866); conditions: 10 μM, ATP near Km
T27 construct: purchased Millipore, Inc. (KinaseProfiler service)
Method in brief: as §1

[28] = target: T28, TAO1 (Homo sapiens, UniProt Q7L7X3); conditions: 10 μM, ATP near Km
T28 construct: purchased Millipore, Inc. (KinaseProfiler service)
Method in brief: as §1

[29] = target: T29, Haspin (Homo sapiens, UniProt Q8TF76); conditions: 10 μM, ATP near Km
T29 construct: purchased Millipore, Inc. (KinaseProfiler service)
Method in brief: as §1

[30] = target: T30, EphA4 (Homo sapiens, UniProt P54764); conditions: 10 μM, ATP near Km
T30 construct: purchased Millipore, Inc. (KinaseProfiler service)
Method in brief: as §1

[31] = target: T31, MKK7beta (Homo sapiens, UniProt O14733); conditions: 10 μM, ATP near Km, POC verified as a false positive (footnote)
T31 construct: purchased Millipore, Inc. (KinaseProfiler service)
Method in brief: as §1

[32] = target: T32, CDK3/cyclinE (Homo sapiens, UniProt Q00526); conditions: 10 μM, ATP near Km
T32 construct: purchased Millipore, Inc. (KinaseProfiler service)
Method in brief: as §1

[33] = target: T33, GSK3alpha (Homo sapiens, UniProt P49840); conditions: 10 μM, ATP near Km
T33 construct: purchased Millipore, Inc. (KinaseProfiler service)
Method in brief: as §1

[34] = target: T34, CK1gamma3 (Homo sapiens, UniProt Q9Y6M4); conditions: 10 μM, ATP near Km
T34 construct: purchased Millipore, Inc. (KinaseProfiler service)
T34 sequence (Q9Y6M4 whole entry): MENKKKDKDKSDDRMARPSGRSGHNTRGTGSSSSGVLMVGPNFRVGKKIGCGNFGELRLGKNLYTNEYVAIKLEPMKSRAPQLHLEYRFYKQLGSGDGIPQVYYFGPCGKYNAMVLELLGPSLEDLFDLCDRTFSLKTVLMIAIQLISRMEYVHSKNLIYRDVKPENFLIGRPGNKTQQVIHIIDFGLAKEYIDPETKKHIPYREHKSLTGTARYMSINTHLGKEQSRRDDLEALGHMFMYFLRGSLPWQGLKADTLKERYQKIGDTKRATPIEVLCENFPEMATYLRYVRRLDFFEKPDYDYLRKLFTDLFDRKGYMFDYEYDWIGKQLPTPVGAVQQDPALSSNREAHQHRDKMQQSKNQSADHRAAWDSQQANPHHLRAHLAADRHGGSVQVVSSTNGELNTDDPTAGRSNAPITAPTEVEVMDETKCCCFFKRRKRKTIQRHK
Method in brief: as §1

[35] = target: T35, JNK1alpha1 (Homo sapiens, UniProt P45983); conditions: 10 μM, ATP near Km
T35 construct: purchased Millipore, Inc. (KinaseProfiler service)
T35 sequence (P45983 1-384 isoform P45983-2): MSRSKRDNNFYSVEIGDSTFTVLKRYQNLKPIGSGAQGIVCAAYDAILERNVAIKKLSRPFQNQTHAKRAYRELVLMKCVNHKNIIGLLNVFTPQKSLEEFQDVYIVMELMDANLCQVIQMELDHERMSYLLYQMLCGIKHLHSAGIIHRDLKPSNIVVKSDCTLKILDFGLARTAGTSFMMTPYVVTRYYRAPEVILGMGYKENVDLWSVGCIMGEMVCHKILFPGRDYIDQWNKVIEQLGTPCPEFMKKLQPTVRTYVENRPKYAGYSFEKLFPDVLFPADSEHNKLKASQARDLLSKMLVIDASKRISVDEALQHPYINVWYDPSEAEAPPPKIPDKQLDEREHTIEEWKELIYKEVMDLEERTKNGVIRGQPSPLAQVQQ
Method in brief: as §1

[36] = target: T36, MRCKalpha (Homo sapiens, UniProt Q5VT25); conditions: 10 μM, ATP near Km
T36 construct: purchased Millipore, Inc. (KinaseProfiler service)
T36 sequence (Q5VT25 whole entry): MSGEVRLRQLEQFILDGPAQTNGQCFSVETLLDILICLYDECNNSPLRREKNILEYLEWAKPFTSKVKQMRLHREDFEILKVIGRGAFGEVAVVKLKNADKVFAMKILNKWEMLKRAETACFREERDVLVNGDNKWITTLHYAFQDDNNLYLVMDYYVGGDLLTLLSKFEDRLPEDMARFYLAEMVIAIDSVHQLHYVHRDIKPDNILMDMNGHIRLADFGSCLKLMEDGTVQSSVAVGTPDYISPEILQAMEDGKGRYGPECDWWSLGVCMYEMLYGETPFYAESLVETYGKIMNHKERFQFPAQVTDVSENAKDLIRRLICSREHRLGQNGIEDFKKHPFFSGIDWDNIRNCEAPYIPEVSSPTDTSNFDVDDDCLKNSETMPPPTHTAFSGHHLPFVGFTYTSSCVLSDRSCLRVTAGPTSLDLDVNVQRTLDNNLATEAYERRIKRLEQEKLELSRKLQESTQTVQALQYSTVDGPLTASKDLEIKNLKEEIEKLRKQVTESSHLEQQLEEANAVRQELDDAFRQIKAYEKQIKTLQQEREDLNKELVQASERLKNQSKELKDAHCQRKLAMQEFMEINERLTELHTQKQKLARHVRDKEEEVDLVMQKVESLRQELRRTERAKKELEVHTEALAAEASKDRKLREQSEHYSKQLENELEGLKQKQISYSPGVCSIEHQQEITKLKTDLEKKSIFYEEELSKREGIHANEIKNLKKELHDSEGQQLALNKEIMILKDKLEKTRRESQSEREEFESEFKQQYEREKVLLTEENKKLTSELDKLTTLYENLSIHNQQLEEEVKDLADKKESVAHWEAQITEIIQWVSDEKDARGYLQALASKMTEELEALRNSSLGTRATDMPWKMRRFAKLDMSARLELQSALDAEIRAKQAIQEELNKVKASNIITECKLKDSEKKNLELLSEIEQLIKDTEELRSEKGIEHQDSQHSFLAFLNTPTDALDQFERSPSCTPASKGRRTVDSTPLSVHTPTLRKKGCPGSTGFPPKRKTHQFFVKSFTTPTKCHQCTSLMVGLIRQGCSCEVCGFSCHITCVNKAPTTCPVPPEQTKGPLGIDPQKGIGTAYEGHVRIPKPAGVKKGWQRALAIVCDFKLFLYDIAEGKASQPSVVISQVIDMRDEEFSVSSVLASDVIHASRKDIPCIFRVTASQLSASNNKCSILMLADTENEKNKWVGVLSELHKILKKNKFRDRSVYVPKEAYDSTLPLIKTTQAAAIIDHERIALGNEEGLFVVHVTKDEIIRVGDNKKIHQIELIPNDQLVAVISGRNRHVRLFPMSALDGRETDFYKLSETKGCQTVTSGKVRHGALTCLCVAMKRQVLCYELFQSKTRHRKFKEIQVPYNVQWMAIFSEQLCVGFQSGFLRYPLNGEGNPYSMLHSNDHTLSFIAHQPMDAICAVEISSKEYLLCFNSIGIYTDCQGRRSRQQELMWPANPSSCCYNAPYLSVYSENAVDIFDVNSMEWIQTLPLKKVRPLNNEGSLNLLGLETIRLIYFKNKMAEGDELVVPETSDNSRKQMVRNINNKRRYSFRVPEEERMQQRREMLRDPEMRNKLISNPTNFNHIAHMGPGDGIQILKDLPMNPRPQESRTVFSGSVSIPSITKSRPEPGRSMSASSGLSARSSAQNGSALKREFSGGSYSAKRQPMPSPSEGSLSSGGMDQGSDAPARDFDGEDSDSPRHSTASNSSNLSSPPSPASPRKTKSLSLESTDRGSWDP
Method in brief: as §1

[37] = target: T37, ERK2 (Homo sapiens, UniProt P28482); conditions: 10 μM, ATP near Km
T37 construct: purchased Millipore, Inc. (KinaseProfiler service)
Method in brief: as §1

[38] = target: T38, SRPK2 (Homo sapiens, UniProt P78362); conditions: 10 μM, ATP near Km
T38 construct: purchased Millipore, Inc. (KinaseProfiler service)
Method in brief: as §1

[39] = target: T39, PKD2 (Homo sapiens, UniProt Q9BZL6); conditions: 10 μM, ATP near Km
T39 construct: purchased Millipore (KinaseProfiler service)
Method in brief: as §1

[40] = target: T40, EphB4 (Homo sapiens, UniProt P54760); conditions: 10 μM, ATP near Km
T40 construct: purchased Millipore, Inc. (KinaseProfiler service)
Method in brief: as §1

[41] = target: T41, PKCbetaII (Homo sapiens, UniProt P05771); conditions: 10 μM, ATP near Km
T41 construct: purchased Millipore, Inc. (KinaseProfiler service)
T41 sequence (P05771 1-673 isoform P05771-2): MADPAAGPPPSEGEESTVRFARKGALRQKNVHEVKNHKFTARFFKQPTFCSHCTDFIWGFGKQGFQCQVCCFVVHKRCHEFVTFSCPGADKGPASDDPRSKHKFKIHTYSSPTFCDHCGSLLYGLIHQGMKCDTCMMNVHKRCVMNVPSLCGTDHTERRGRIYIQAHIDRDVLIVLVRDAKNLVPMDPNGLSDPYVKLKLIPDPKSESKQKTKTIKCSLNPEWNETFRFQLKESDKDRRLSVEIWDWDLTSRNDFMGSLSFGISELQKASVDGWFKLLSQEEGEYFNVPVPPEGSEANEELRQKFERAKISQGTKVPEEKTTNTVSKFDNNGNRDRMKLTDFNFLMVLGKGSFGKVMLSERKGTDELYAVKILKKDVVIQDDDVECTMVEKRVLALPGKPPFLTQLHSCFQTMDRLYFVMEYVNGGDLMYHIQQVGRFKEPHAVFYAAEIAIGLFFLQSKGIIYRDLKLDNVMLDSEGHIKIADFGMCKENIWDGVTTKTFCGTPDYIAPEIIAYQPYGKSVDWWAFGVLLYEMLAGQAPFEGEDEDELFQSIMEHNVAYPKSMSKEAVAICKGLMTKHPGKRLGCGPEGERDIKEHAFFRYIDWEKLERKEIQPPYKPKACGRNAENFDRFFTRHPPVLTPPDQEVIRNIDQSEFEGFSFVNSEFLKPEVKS
Method in brief: as §1

COCCN1C[C@@H](NC(=O)Nc2c(-c3ccccc3)nc3c(C)nccn23)[C@H](c2ccc(F)c(F)c2)C1 [Example 20, 1-((3S,4R)-4-(3,4-difluorophenyl)-1-(2-methoxyethyl)pyrrolidin-3-yl)-3-(8-methyl-2-phenylimidazo[1,2-a]pyrazin-3-yl)urea]
Avg. POC [1]: 113.5 POC | Avg. POC [2]: 97.5 POC | Avg. POC [3]: 105.5 POC | Avg. POC [4]: 124 POC | Avg. POC [5]: 109 POC | Avg. POC [6]: 112.5 POC | Avg. POC [7]: 120.5 POC | Avg. POC [8]: 102 POC | Avg. POC [9]: 97.5 POC | Avg. POC [10]: 114 POC | Avg. POC [11]: 126.5 POC | Avg. POC [12]: 108.5 POC | Avg. POC [13]: 122 POC | Avg. POC [14]: 107.5 POC | Avg. POC [15]: 108 POC | Avg. POC [16]: 121 POC | Avg. POC [17]: 105 POC | Avg. POC [18]: 0.5 POC | Avg. POC [19]: 103.5 POC | Avg. POC [20]: 97 POC | Avg. POC [21]: 99.5 POC | Avg. POC [22]: 89.5 POC | Avg. POC [23]: 110 POC | Avg. POC [24]: 117.5 POC | Avg. POC [25]: 85 POC | Avg. POC [26]: 87.5 POC | Avg. POC [27]: 116.5 POC | Avg. POC [28]: 106 POC | Avg. POC [29]: 93.5 POC | Avg. POC [30]: 106 POC | Avg. POC [31]: −2 POC | Avg. POC [32]: 111 POC | Avg. POC [33]: 109.5 POC | Avg. POC [34]: 112 POC | Avg. POC [35]: 105 POC | Avg. POC [36]: 101.5 POC | Avg. POC [37]: 96 POC | Avg. POC [38]: 100 POC | Avg. POC [39]: 113.5 POC | Avg. POC [40]: 102 POC | Avg. POC [41]: 106 POC
